The results in this text go back to patent publication US20230340011A1 (Asteroid Therapeutics, priority 2022, published 2023).

pIC50: −log10 of the molar value. Bounds are passed on as bounds.

The assay addresses SREBP-2 (Homo sapiens (Human), UniProt Q12772). In words: In vitro assay SREBP-2: PathHunter U2OS SREBP-2 Nuclear Translocation Cell Line, U18666A-stimulated. The format is cell-based. To be noted: PathHunter U2OS SREBP-2 nuclear translocation cells, U18666A 10 μM, overnight (16 hours).

The term pIC50 denotes the IC50 on a negative log10 scale, so that one unit is a factor of ten. Read a low pIC50 as a high IC50. `Cc1ccnc(OC[C@@H](C)[C@H]2CC[C@H]3[C@@H]4CC=C5C[C@@H](O)CC[C@]5(C)[C@H]4CC[C@]23C)c1` [Example 262, (1R,3aS,3bS,7S,9aR,9bS,11aS)-9a,11a-dimethyl-1-[(2S)-1-[(4-methylpyridin-2-yl)oxy]propan-2-yl]-1H,2H,3H,3aH,3bH,4H,6H,7H,8H,9H,9aH,9bH,10H,11H,11aH-cyclopenta[a]phenanthren-7-ol] had a negative-log IC50 (pIC50) above 6.60. The same measure for `Cc1ccc(OC[C@@H](C)[C@H]2CC[C@H]3[C@@H]4CC=C5C[C@@H](O)CC[C@]5(C)[C@H]4CC[C@]23C)nc1` [Example 263, (3S,8S,9S,10R,13S,14S,17R)-10,13-dimethyl-17-((S)-1-((5-methylpyridin-2-yl)oxy)propan-2-yl)-2,3,4,7,8,9,10,11,12,13,14,15,16,17-tetradecahydro-1H-cyclopenta[a]phenanthren-3-ol]: 6.00 to 6.60; for `CNC(=O)c1ccncc1O[C@@H](C)[C@H]1CC[C@H]2[C@@H]3CC=C4C[C@@H](O)CC[C@]4(C)[C@H]3CC[C@]12C` [Example 265, 3-((S)-1-((3S,8S,9S,10R,13S,14S,17S)-3-hydroxy-10,13-dimethyl-2,3,4,7,8,9,10,11,12,13,14,15,16,17-tetradecahydro-1H-cyclopenta[a]phenanthren-17-yl)ethoxy)-N-methylisonicotinamide]: 5.00 to 6.00. The result for `CNC(=O)c1cncc(O[C@@H](C)[C@H]2CC[C@H]3[C@@H]4CC=C5C[C@@H](O)CC[C@]5(C)[C@H]4CC[C@]23C)c1` [Example 266, 5-((S)-1-((3S,8S,9S,10R,13S,14S,17S)-3-hydroxy-10,13-dimethyl-2,3,4,7,8,9,10,11,12,13,14,15,16,17-tetradecahydro-1H-cyclopenta[a]phenanthren-17-yl)ethoxy)-N-methylnicotinamide] reads 6.00 to 6.60.

`CNC(=O)c1ncccc1O[C@@H](C)[C@H]1CC[C@H]2[C@@H]3CC=C4C[C@@H](O)CC[C@]4(C)[C@H]3CC[C@]12C` [Example 267, 3-((S)-1-((3S,8S,9S,10R,13S,14S,17S)-3-hydroxy-10,13-dimethyl-2,3,4,7,8,9,10,11,12,13,14,15,16,17-tetradecahydro-1H-cyclopenta[a]phenanthren-17-yl)ethoxy)-N-methylpicolinamide]: the pIC50 is 6.00 to 6.60. The result for `C[C@H](Oc1cnccc1CO)[C@H]1CC[C@H]2[C@@H]3CC=C4C[C@@H](O)CC[C@]4(C)[C@H]3CC[C@]12C` [Example 268, (3S,8S,9S,10R,13S,14S,17S)-17-((S)-1-((4-(hydroxymethyl)pyridin-3-yl)oxy)ethyl)-10,13-dim ethyl-2,3,4,7,8,9,10,11,12,13,14,15,16,17-tetradecahydro-1H-cyclopenta[a]phenanthren-3-ol] reads 6.00 to 6.60; that for `C[C@H](Oc1cncc(CO)c1)[C@H]1CC[C@H]2[C@@H]3CC=C4C[C@@H](O)CC[C@]4(C)[C@H]3CC[C@]12C` [Example 269, (3S,8S,9S,10R,13S,14S,17S)-17-((S)-1-((5-(hydroxymethyl)pyridin-3-yl)oxy)ethyl)-10,13-dim ethyl-2,3,4,7,8,9,10,11,12,13,14,15,16,17-tetradecahydro-1H-cyclopenta[a]phenanthren-3-ol], 6.00 to 6.60.

As to `C[C@H](Oc1cccnc1CO)[C@H]1CC[C@H]2[C@@H]3CC=C4C[C@@H](O)CC[C@]4(C)[C@H]3CC[C@]12C` [Example 270, (3S,8S,9S,10R,13S,14S,17S)-17-((S)-1-((2-(hydroxymethyl)pyridin-3-yl)oxy)ethyl)-10,13-dim ethyl-2,3,4,7,8,9,10,11,12,13,14,15,16,17-tetradecahydro-1H-cyclopenta[a]phenanthren-3-ol], the pIC50 was 6.00 to 6.60.

Take `Cc1ccncc1O[C@@H](C)[C@H]1CC[C@H]2[C@@H]3CC=C4C[C@@H](O)CC[C@]4(C)[C@H]3CC[C@]12C` [Example 271, (3S,8S,9S,10R,13S,14S,17S)-10,13-dimethyl-17-((S)-1-((4-methylpyridin-3-yl)oxy)ethyl)-2,3,4,7,8,9,10,11,12,13,14,15,16,17-tetradecahydro-1H-cyclopenta[a]phenanthren-3-ol]: the negative logarithm of the IC50 (pIC50) is 6.00 to 6.60. Take `Cc1cncc(O[C@@H](C)[C@H]2CC[C@H]3[C@@H]4CC=C5C[C@@H](O)CC[C@]5(C)[C@H]4CC[C@]23C)c1` [Example 272, (3S,8S,9S,10R,13S,14S,17S)-10,13-dimethyl-17-((S)-1-((5-methylpyridin-3-yl)oxy)ethyl)-2,3,4,7,8,9,10,11,12,13,14,15,16,17-tetradecahydro-1H-cyclopenta[a]phenanthren-3-ol]: the pIC50 is above 6.60. `Cc1ccc(O[C@@H](C)[C@H]2CC[C@H]3[C@@H]4CC=C5C[C@@H](O)CC[C@]5(C)[C@H]4CC[C@]23C)cn1` [Example 273, (1S,3aS,3bS,7S,9aR,9bS,11aS)-9a,11a-dimethyl-1-[(1S)-1-[(6-methylpyridin-3-yl)oxy]ethyl]-1H,2H,3H,3aH,3bH,4H,6H,7H,8H,9H,9aH,9bH,10H,11H,11aH-cyclopenta[a]phenanthren-7-ol] showed a negative logarithm of the IC50 (pIC50) above 6.60. The result for `CC(=O)N1CCC(C(=O)N(C)CC[C@@H](C)[C@H]2CC[C@H]3[C@@H]4CC=C5C[C@@H](O)CC[C@]5(C)[C@H]4CC[C@]23C)CC1` [Example 294, 1-acetyl-N—((R)-3-((3S,8S,9S,10R,13R,14S,17R)-3-hydroxy-10,13-dimethyl-2,3,4,7,8,9,10,11,12,13,14,15,16,17-tetradecahydro-1H-cyclopenta[a]phenanthren-17-yl)butyl)-N-methylpiperidine-4-carboxamide] reads 6.00 to 6.60; that for `CC(=O)N(C)C1CN(C(=O)CC[C@@H](C)[C@H]2CC[C@H]3[C@@H]4CC=C5C[C@@H](O)CC[C@]5(C)[C@H]4CC[C@]23C)C1` [Example 325, N-(1-((R)-4-((3S,8S,9S,10R,13R,14S,17R)-3-hydroxy-10,13-dimethyl-2,3,4,7,8,9,10,11,12,13,14,15,16,17-tetradecahydro-1H-cyclopenta[a]phenanthren-17-yl)pentanoyl)azetidin-3-yl)-N-methylacetamide], 6.00 to 6.60; that for `CC(=O)NC1CN(C(=O)CC[C@@H](C)[C@H]2CC[C@H]3[C@@H]4CC=C5C[C@@H](O)CC[C@]5(C)[C@H]4CC[C@]23C)C1` [Example 326, N-{1-[(4R)-4-[(1R,3aS,3bS,7S,9aR,9bS,11aR)-7-hydroxy-9a,11a-dimethyl-1H,2H,3H,3aH,3bH,4H,6H,7H,8H,9H,9aH,9bH,10H,11H,11aH-cyclopenta[a]phenanthren-1-yl]pentanoyl]azetidin-3-yl}acetamide], 6.00 to 6.60. The result for `CC(=O)N1CCC2(C1)CN(C(=O)CC[C@@H](C)[C@H]1CC[C@H]3[C@@H]4CC=C5C[C@@H](O)CC[C@]5(C)[C@H]4CC[C@]13C)C2` [Example 327, (4R)-4-[(1R,3aS,3bS,7S,9aR,9bS,11aR)-7-hydroxy-9a,11a-dimethyl-1H,2H,3H,3aH,3bH,4H,6H,7H,8H,9H,9aH,9bH,10H,11H,11aH-cyclopenta[a]phenanthren-1-yl]-1-{6-acetyl-2,6-diazaspiro[3.4]octan-2-yl}pentan-1-one] reads 6.00 to 6.60; that for `CC(=O)N1CC2(C1)CN(C(=O)CC[C@@H](C)[C@H]1CC[C@H]3[C@@H]4CC=C5C[C@@H](O)CC[C@]5(C)[C@H]4CC[C@]13C)C2` [Example 328, (4R)-4-[(1R,3aS,3bS,7S,9aR,9bS,11aR)-7-hydroxy-9a,11a-dimethyl-1H,2H,3H,3aH,3bH,4H,6H,7H,8H,9H,9aH,9bH,10H,11H,11aH-cyclopenta[a]phenanthren-1-yl]-1-{6-acetyl-2,6-diazaspiro[3.3]heptan-2-yl}pentan-1-one], 6.00 to 6.60. In turn, `C#CC1(OC)CCN(C(=O)CC[C@@H](C)[C@H]2CC[C@H]3[C@@H]4CC=C5C[C@@H](O)CC[C@]5(C)[C@H]4CC[C@]23C)CC1` [Example 330, (R)-1-(4-ethynyl-4-methoxypiperidin-1-yl)-4-((3S,8S,9S,10R,13R,14S,17R)-3-hydroxy-10,13-dimethyl-2,3,4,7,8,9,10,11,12,13,14,15,16,17-tetradecahydro-1H-cyclopenta[a]phenanthren-17-yl)pentan-1-one] had a negative logarithm of the IC50 (pIC50) above 6.60. The same measure for `C[C@H](CCC(=O)N1CCC(O)(c2ccnnc2)CC1)[C@H]1CC[C@H]2[C@@H]3CC=C4C[C@@H](O)CC[C@]4(C)[C@H]3CC[C@]12C` [Example 343, (R)-4-((3S,8S,9S,10R,13R,14S,17R)-3-hydroxy-10,13-dimethyl-2,3,4,7,8,9,10,11,12,13,14,15,16,17-tetradecahydro-1H-cyclopenta[a]phenanthren-17-yl)-1-(4-hydroxy-4-(pyridazin-4-yl)piperidin-1-yl) pentan-1-one]: 5.00 to 6.00; for `C[C@H](CCC(=O)N1CCC(O)(c2ccncc2)CC1)[C@H]1CC[C@H]2[C@@H]3CC=C4C[C@@H](O)CC[C@]4(C)[C@H]3CC[C@]12C` [Example 344, (R)-4-((3S,8S,9S,10R,13R,14S,17R)-3-hydroxy-10,13-dimethyl-2,3,4,7,8,9,10,11,12,13,14,15,16,17-tetradecahydro-1H-cyclopenta[a]phenanthren-17-yl)-1-(4-hydroxy-4-(pyridin-4-yl)piperidin-1-yl)pentan-1-one]: above 6.60. The same measure for `C[C@H](CCC(=O)N1CCCC(c2ccnnc2)C1)[C@H]1CC[C@H]2[C@@H]3CC=C4C[C@@H](O)CC[C@]4(C)[C@H]3CC[C@]12C` (stereo partly drawn) [Example 345, (4R)-4-((3S,8S,9S,10R,13R,14S,17R)-3-hydroxy-10,13-dimethyl-2,3,4,7,8,9,10,11,12,13,14,15,16,17-tetradecahydro-1H-cyclopenta[a]phenanthren-17-yl)-1-(3-(pyridazin-4-yl)piperidin-1-yl)pentan-1-one]: 6.00 to 6.60.
